# In patent US4526888A, “Nephrotoxicity inhibitors for aminoglycoside antibiotics” (Bristol-Myers Company, priority 1983, dated 1985):
# “And” between values parts separate entries of the source, which are not always exact repeats. Equal values may be shown once. Read-outs that look alike come from different tables or passages of the source.
# Assays:
# [1] = test system: renal brush border membranes of proximal tubule cells; assay: In vitro gentamicin transport inhibition, isolated renal brush border membrane vesicles; assay type: biochemical; settings: 3H-gentamicin transport, rat renal brush border membrane vesicles, 30 second incubation; multiple of aminoglycoside molar concentration
# Text: An in vitro screening program was established to study the selective inhibition of aminoglycoside transport across renal brush border membranes of proximal tubule cells. The screening tests employed isolated, purified brush border membrane as described by Kinsella et al., Biochem. Biophys. Acta., 552: 468-477 (1979) and Williams et al., Tox. Applied Pharmacol., 61: 243-251 (1981), comprising isolation and purification of rat renal cortical membranes via differential centrifugation, cationic precipitation and discontinuous sucrose gradient techniques. […] The transport was quantified by liquid scintillation techniques as described by Kinsella et al., J. Pharmacol. Exp. Ther., 209: 443-450 (1979). Gentamicin transport was characterized, FIG. 1, as to time and concentration dependency, and as to specificity. Gentamicin transport was then measured at a fixed concentration of gentamicin (0.5 mM) in the presence of prospective inhibitors at 5X molar concentration. […] The reaction media was then vacuum filtered on 0.3 micron Millipore filters. The filters were washed twice with 2 ml of the buffer and removed and counted using liquid scintillation spectroscopy techniques. […] The inhibitors were solubilized in the above-described buffer.
# rats [2] = assay: Fourteen day subacute nephrotoxicity model in rats, histopathologic examination of renal tissue; settings: for in vivo nephroprotective activity (in words): summary of Table III
# Text: (§1) A fourteen (14) day subacute nephrotoxicity model in rats was utilized to test the in vivo efficacy of aminoglycoside-transport inhibitor combinations. […] Though blood urea nitrogen (BUN) was monitored as a clinical parameter of renal function, the primary evaluation of nephrotoxicity in this model involves histopathologic examination of renal tissue, which is a more accurate and sensitive method for assessing nephrotoxicity [Hottendorf et al., Antimicrob.
# (§2) Male Sprague-Dawley rats [Charles River Breeding Laboratories, Inc., (CRL: COBS CD (SD) BR)] approximately 6 weeks old and weighing 140-160 gms upon arrival were used. They were conditioned for at least 5 days prior to the start of the study. Only animals found to be clinically healthy were selected. Rats were identified individually by number on the tail with black marking pens. During the study the rats were housed individually in cages of the appropriate size and type in a temperature-controlled room. Rodent Laboratory Chow (pellet, Purina Ralston Company) and water was offered ad libitum.
# (§3) The aminoglycoside and aminoglycoside-inhibitor mixtures were administered subcutaneously twice daily for 14 days.
# (§4) All rats were euthanized by an overdose of sodium pentobarbital on study Day 15.
# (§5) The kidneys were removed and examined grossly. A longitudinal section of the left kidney and a cross section of the right kidney from each rat were preserved in 10% neutral buffered Formalin for histopathological evaluation. Tissue sections (6 μm each) were stained with hematoxylin and eosin, and the resulting tissue slides were randomized, masked, and examined by a single pathologist without knowledge of the animal's treatment.
# (§6) Lesions encountered in the renal cortex included tubular vacuolar or granular degeneration, peritubular inflammation, tubular necrosis, tubular dilatation, tubular basophilia, and interstitial fibrosis. The extent and distribution of each of these lesions in both kidneys of every rat were scored as follows: 0, absence of lesion; 1, lesion represented in fewer than 10% of the nephrons; 2, lesion represented in 10 to 50% of the nephrons; 3, lesion represented in 50 to 90% of the nephrons; and 4, lesion represented in more than 90% of the nephrons. Since these lesions are all interrelated and represent various stages of proximal tubular damage, the lesion scores were summed to produce a single nephrotoxicity response for each animal, with a possible severity range of 0 to 24.
# (§7) Nephrotoxicity was monitored by blood urea nitrogen (BUN) analysis and histopathologic examination of renal tissue.
# (§8) Aminoglycosides and aminoglycoside-inhibitor mixtures were administered subcutaneously twice daily for fourteen days.
# (§9) All rats were euthanized by an overdose of sodium pentobarbital on study Day 15. The kidneys were removed, examined grossly and placed in 10% neutral buffered formalin for subsequent histopathologic evaluation.
# rats [3] = settings: rat, in vivo
# Text: as §1, §2, §3, §4, §5, §6, §7, §8, §9
# [4] = multiple of AG dose: Molar 0.3 (Mg 15 Lysine10, 10 Aspartic acid90, 6 Asparagine90)
# [5] = multiple of AG dose: Molar 1 (Mg 15 Glutamic acid60, 20 Asparagine90)
# [6] = multiple of AG dose: Molar 0.1 (Mg 0.7 Lysine20, 2 Asparagine90)
molecule,measurement,setting,value
Poly-l-lysine10,I50 (molar multiples producing 50% transport inhibition),[1],1 X
same,Nephroprotective Activity,rats [2]; [4],0
NCCCNCCCCNCCCN [Spermine],I50 (molar multiples producing 50% transport inhibition),[1],3 X
Poly-l-glutamic Acid60,I50 (molar multiples producing 50% transport inhibition),[1],< 0.1 X
same,Nephroprotective Activity,rats [2]; [5],0
Poly-l-aspartic Acid90,I50 (molar multiples producing 50% transport inhibition),[1],< 0.1 X
same,Nephroprotective Activity,rats [2]; [4],+++ (reduction 100%)
same,in vivo nephroprotective activity (in words),rats [2],greatest degree of in vivo nephroprotective activity
gentamicin sulfate [GENTM],"Histopath. Score (TOTAL), group value below animal scores","rats [2]; Example II Group II, gentamicin 10 mg/kg sc twice daily 14 days",4.2
same,"Histopath. Score (TOTAL), individual animal","rats [2]; Example II Group II, gentamicin 10 mg/kg sc twice daily 14 days, Day 15, range 0 to 24",1 and 5 and 6 and 4
same,"Histopath. Score (TOTAL), group value below animal scores","rats [2]; Example II Group III, gentamicin 20 mg/kg",4.8
same,"Histopath. Score (TOTAL), individual animal","rats [2]; Example II Group III, gentamicin 20 mg/kg sc twice daily 14 days",4 and 3 and 5 and 8
same,"Histopath. Score (TOTAL), group value below rat scores","rats [2]; Example III Group II, gentamicin 20 mg/kg",8.8
same,"Histopath. Score (TOTAL), individual rat","rats [2]; Example III Group II, gentamicin 20 mg/kg sc twice daily fourteen days",8 and 9 and 10
same,nephrotoxicity in this test (conclusion in words),rats [2]; aminoglycoside alone groups,demonstrates the nephrotoxicity of gentamicin
same,dose necessary to elicit a significant and reproducible nephrotoxic response,"rats [2]; bid, 14 days, rats",20 mg/kg/day
"NCC[C@H](O)C(=O)N[C@@H]1C[C@H](N)[C@@H](O[C@H]2O[C@H](CN)[C@@H](O)[C@H](O)[C@H]2O)[C@H](O)[C@H]1O[C@H]1O[C@H](CO)[C@@H](O)[C@H](N)[C@H]1O.O=S(=O)(O)O.O=S(=O)(O)O [AMIKACIN, amikacin sulfate]",nephrotoxicity in this test (conclusion in words),rats [3],demonstrates the nephrotoxicity of amikacin
Tetralysine [Lysine4],I50 (molar multiples producing 50% transport inhibition),[1],10 X
same,Nephroprotective Activity,"rats [2]; multiple of AG dose: Molar 16, Mg 25",0
O=S(=O)([O-])CO.[Na+] [Sodium formaldehyde bisulfite],I50 (molar multiples producing 50% transport inhibition),[1],10 X
same,Nephroprotective Activity,"rats [2]; multiple of AG dose: Molar 136, Mg 40",+ (less than 50% reduction)
polylysine20,I50 (molar multiples producing 50% transport inhibition),[1],0.05 X
same,Nephroprotective Activity,rats [2]; [6],+ (less than 50% reduction)
same,in vivo nephroprotective activity (in words),rats [2],showed any nephroprotective activity
Poly-l-asparagine90,I50 (molar multiples producing 50% transport inhibition),[1],0.1 X
same,Nephroprotective Activity,rats [2]; [6],+ (less than 50% reduction)
same,Nephroprotective Activity,"rats [2]; multiple of AG dose: Molar 0.15, Mg 3",+ (less than 50% reduction)
same,Nephroprotective Activity,rats [2]; [4],+ (less than 50% reduction)
same,Nephroprotective Activity,"rats [2]; multiple of AG dose: Molar 0.5, Mg 10",+++ (reduction 100%)
same,Nephroprotective Activity,rats [2]; [5],+++ (reduction 100%)
same,in vivo nephroprotective activity (in words),rats [2],greatest degree of in vivo nephroprotective activity
